Measurements reported in patent US20190290728A1, “METHODS RELATED TO BREAKING T CELL EXHAUSTION” (CHILDREN'S MEDICAL CENTER CORPORATION, priority 2016, published 2019).

Tested on: Jurkat cells expressing TMEM16F-RFP
Assay: TIRF live imaging of TMEM16F-positive vesicle movement at the TCR activation site
Assay type: cell-based
Settings: Jurkat cells pretreated with 1 μM inhibitor for 30 min, stimulated on αCD3-coated coverslips, TIRF microscopy (FIGS. 7D, 7E)
Text: TMEM16F is recruited to the immunological synapse and resides in late endosomes. To elucidate the molecular mechanism how TMEM16F controls T cell activation, its cellular localization and function were tracked. To this end, T cells transduced with fluorescent TMEM16F were cocultured with antigen-presenting B cells. […] Of note, TMEM16F appeared mainly in intracellular structures instead of the plasma membrane (FIG. 7A). […] In order to test the mechanics of TMEM16F-positive vesicle movement, TIRF live imaging was performed while modulating the functions of the cytoskeleton. […] By contrast, treatment with nocodazole that disrupts the microtubule network reduced migration of TMEM16F vesicles, indicating the movement of TMEM16F was largely mediated by microtubules but not actin (FIGS. 7D and 7E).
TIRF Microscopy. Sample preparation for TIRF microscopy was performed as previously reported with minor modifications (Bunnell et al., 2003). […]
Image Processing. […] The number of TMEM16F-positive spots was plotted using Prism 6.0™ Quantifications of LBPA-positive vesicles, LAT-GFP, and SH2-ZAP70-mCherry were done similarly. Intensity of SH2-ZAP70-mCherry was determined using intensity vs. time plug-in. For the colocalization of TMEM16F and Rab proteins, fluorescence intensity for each protein was measured on a line manually drawn along TMEM16F-positive vesicles, and values (pixel) were plotted. […]

| Compound | recruitment of TMEM16F to the T cell activation site / migration of TMEM16F vesicles |
| --- | --- |
| Cc1ccc2c(c1)C(=O)C1(O)CCN(c3ccccc3)C1=N2 (centres unmarked) [blebbistatin] | did not alter |
| COC(=O)Nc1nc2ccc(C(=O)c3cccs3)cc2[nH]1 [nocodazole] | reduced |
